The text below walks through data of BindingDB's records for doi:10.1021/acs.jmedchem.6b01270 (University of Tennessee Health Science Center, 2017).

As usually defined, the IC50 is the concentration needed to halve the response being measured.

This assay can be described thus: Inhibition of ATX (unknown origin) expressed in human A2058 cells assessed as inhibition of LPC-induced cell invasion after 20 hrs by calcein-AM dye based matrigel-mediated Boyden chamber assay.
`O=C(Nc1ccc(F)c(F)c1)c1cc(S(=O)(=O)N2CCOCC2)c(Cl)cc1Cl`: the IC50 was 528 nM.
Under `O=C(Nc1cc(F)c(Cl)c(F)c1)c1cc(S(=O)(=O)N2CCOCC2)c(Cl)cc1Cl` stands 740 nM; under `O=S(=O)(c1cc(C(=S)Nc2cc(F)c(F)c(F)c2)c(Cl)cc1Cl)N1CCOCC1`, 403 nM.
